Source: PubChem BioAssay AID192 (DTP/NCI, 2004)
Values joined by “and” are separate entries in the source; they are usually repeats but may differ in a detail not shown here. Identical values can stand only once. Toxic doses and inconclusive results are not listed.

System: BDF1 mice, B16 melanoma ip, median survival T/C
Test: NCI In Vivo Anticancer Drug Screen. Data for tumor model B16 Melanoma (intraperitoneal) in B6D2F1 (BDF1) mice
Settings: endpoint: median survival time, higher = longer survival
Outline: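 Antitumor activity is assessed in mice bearing a transplanted tumor, with survival or tumor size compared against vehicle-dosed controls and expressed as T/C.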

[1] = dose: 6.25 mg/kg/injection, schedule: Q01DX009 (ip), vehicle: saline with Tween-80
[2] = dose: 12.5 mg/kg/injection, schedule: Q01DX009 (ip), vehicle: saline with Tween-80
[3] = dose: 25.0 mg/kg/injection, schedule: Q01DX009 (ip), vehicle: saline with Tween-80
[4] = dose: 50.0 mg/kg/injection, schedule: Q01DX009 (ip), vehicle: saline with Tween-80
[5] = dose: 100.0 mg/kg/injection, schedule: Q04DX003 (ip), vehicle: saline with Tween-80
[6] = dose: 200.0 mg/kg/injection, schedule: Q04DX003 (ip), vehicle: saline with Tween-80
[7] = dose: 6.25 mg/kg/injection, schedule: Q04DX003 (ip), vehicle: saline
[8] = dose: 100.0 mg/kg/injection, schedule: Q04DX003 (ip), vehicle: Klucel (hydroxypropylcellulose) (HPC)
[9] = dose: 6.25 mg/kg/injection, schedule: Q01DX009 (ip), vehicle: Klucel (hydroxypropylcellulose) (HPC)
[10] = dose: 12.5 mg/kg/injection, schedule: Q01DX009 (ip), vehicle: Klucel (hydroxypropylcellulose) (HPC)
[11] = dose: 25.0 mg/kg/injection, schedule: Q01DX009 (ip), vehicle: Klucel (hydroxypropylcellulose) (HPC)
[12] = dose: 50.0 mg/kg/injection, schedule: Q01DX009 (ip), vehicle: Klucel (hydroxypropylcellulose) (HPC)
[13] = dose: 100.0 mg/kg/injection, schedule: Q01DX009 (ip), vehicle: Klucel (hydroxypropylcellulose) (HPC)
[14] = dose: 200.0 mg/kg/injection, schedule: Q01DX009 (ip), vehicle: Klucel (hydroxypropylcellulose) (HPC)
[15] = dose: 25.0 mg/kg/injection, schedule: Q01DX009 (ip), vehicle: saline
[16] = dose: 100.0 mg/kg/injection, schedule: Q01DX009 (ip), vehicle: saline with Tween-80
[17] = dose: 200.0 mg/kg/injection, schedule: Q01DX009 (ip), vehicle: saline with Tween-80
[18] = dose: 50.0 mg/kg/injection, schedule: Q01DX009 (ip), vehicle: saline

COc1ccccc1C(C#N)N1CCCN(C(C#N)c2ccccc2OC)C1c1cc(Cl)cc(Cl)c1O (stereo unspecified)
T/C [1]: 104 % of control | T/C [2]: 101 % of control | T/C [3]: 103 % of control | T/C [4]: 91 % of control and 124 % of control

OC(Cc1nc(-c2ccccc2)c(-c2ccccc2)s1)(C(F)(F)F)C(F)(F)F
T/C [5]: 105 % of control | T/C [6]: 86 % of control

NCCN1CCc2ccccc2C1
T/C [7]: 113 % of control | T/C (dose: 12.5 mg/kg/injection, schedule: Q04DX003 (ip), vehicle: saline): 110 % of control | T/C (dose: 16.5 mg/kg/injection, schedule: Q04DX003 (ip), vehicle: saline): 112 % of control | T/C (dose: 25.0 mg/kg/injection, schedule: Q04DX003 (ip), vehicle: saline): 112 % of control and 115 % of control | T/C (dose: 37.5 mg/kg/injection, schedule: Q04DX003 (ip), vehicle: saline): 110 % of control

CCCCCCCCOc1ccc(C(=O)c2ccccc2)c(O)c1
T/C (dose: 6.0 mg/kg/injection, schedule: Q01DX009 (ip), vehicle: Klucel (hydroxypropylcellulose) (HPC)): 92 % of control | T/C [8]: 91 % of control | T/C (dose: 200.0 mg/kg/injection, schedule: Q04DX003 (ip), vehicle: Klucel (hydroxypropylcellulose) (HPC)): 93 % of control

CCOC(=O)/C(=C\c1ccccc1)P(=O)(OCC)c1ccccc1 (stereo unspecified)
T/C (dose: 25.0 mg/kg/injection, schedule: Q04DX003 (ip), vehicle: Klucel (hydroxypropylcellulose) (HPC)): 93 % of control | T/C (dose: 50.0 mg/kg/injection, schedule: Q04DX003 (ip), vehicle: Klucel (hydroxypropylcellulose) (HPC)): 95 % of control | T/C [8]: 94 % of control

NC(=O)c1nc2n(c1N)CCC2
T/C [5]: 102 % of control | T/C [6]: 105 % of control | T/C (dose: 400.0 mg/kg/injection, schedule: Q04DX003 (ip), vehicle: saline with Tween-80): 94 % of control

CC(=O)Nc1c(Cl)c(Cl)c2c(c1Cl)Cc1cc(Br)ccc1-2
T/C (dose: 1.5 mg/kg/injection, schedule: Q01DX009 (ip), vehicle: saline with Tween-80): 94 % of control | T/C (dose: 3.0 mg/kg/injection, schedule: Q01DX009 (ip), vehicle: saline with Tween-80): 94 % of control | T/C (dose: 6.0 mg/kg/injection, schedule: Q01DX009 (ip), vehicle: saline with Tween-80): 100 % of control | T/C (dose: 12.0 mg/kg/injection, schedule: Q01DX009 (ip), vehicle: saline with Tween-80): 92 % of control | T/C [2]: 97 % of control

CCCCCCCC(=O)CCCCC
T/C (dose: 50.0 mg/kg/injection, schedule: Q01DX009 (ip), vehicle: other): 90 % of control | T/C (dose: 100.0 mg/kg/injection, schedule: Q01DX009 (ip), vehicle: other): 94 % of control | T/C (dose: 200.0 mg/kg/injection, schedule: Q01DX009 (ip), vehicle: other): 100 % of control

[I][Hg][CH2]C1OCCOC1[CH2][Hg][I] (stereo unspecified)
T/C [9]: 100 % of control | T/C [10]: 101 % of control | T/C [11]: 106 % of control | T/C [12]: 107 % of control | T/C [13]: 105 % of control | T/C [14]: 95 % of control

O=[N+]([O-])c1ccc(/C=C2/c3cc(Cl)ccc3-c3c(Cl)cc(Cl)cc32)cc1
T/C [1]: 90 % of control | T/C [3]: 88 % of control

CN(CCCOS(C)(=O)=O)CCCOS(C)(=O)=O
T/C (dose: 6.25 mg/kg/injection, schedule: Q01DX009 (ip), vehicle: saline): 115 % of control | T/C (dose: 10.0 mg/kg/injection, schedule: Q01DX009 (ip), vehicle: saline): 185 % of control | T/C (dose: 20.0 mg/kg/injection, schedule: Q01DX009 (ip), vehicle: saline): 150 % of control | T/C [15]: 181 % of control | T/C (dose: 40.0 mg/kg/injection, schedule: Q01DX009 (ip), vehicle: saline): 285 % of control

Nc1ccc2ccc(O)cc2c1
T/C (dose: 75.0 mg/kg/injection, schedule: Q04DX003 (ip), vehicle: saline with Tween-80): 105 % of control | T/C (dose: 150.0 mg/kg/injection, schedule: Q04DX003 (ip), vehicle: saline with Tween-80): 95 % of control

C/C(=N\NC(N)=O)c1cccc(/C(C)=N/NC(N)=O)n1
T/C [1]: 91 % of control | T/C [2]: 96 % of control | T/C [3]: 86 % of control | T/C [4]: 88 % of control | T/C [16]: 86 % of control

O=c1[nH]c(=O)n(C2CC(O)C(CO)O2)cc1F (stereo unspecified)
T/C (dose: 5.0 mg/kg/injection, schedule: Q01DX009 (ip), vehicle: saline): 92 % of control | T/C [3]: 173 % of control | T/C [16]: 183 % of control | T/C [17]: 86 % of control

Nc1nc(=S)c2[nH]c(N=Nc3ccc(S(=O)(=O)Nc4ncccn4)cc3)nc2[nH]1
T/C (dose: 1.56 mg/kg/injection, schedule: Q01DX009 (ip), vehicle: Klucel (hydroxypropylcellulose) (HPC)): 95 % of control | T/C (dose: 3.12 mg/kg/injection, schedule: Q01DX009 (ip), vehicle: Klucel (hydroxypropylcellulose) (HPC)): 102 % of control | T/C [9]: 113 % of control | T/C [10]: 102 % of control

NCCNc1ccc(NCCN)c2c1C(=O)c1ccccc1C2=O
T/C (dose: 4.0 mg/kg/injection, schedule: Q01DX009 (ip), vehicle: acid diluted with saline): 210 % of control | T/C (dose: 8.0 mg/kg/injection, schedule: Q01DX009 (ip), vehicle: acid diluted with saline): 218 % of control

O=C1CN=C(c2ccccc2)c2cc(Cl)ccc2N1
T/C [9]: 102 % of control | T/C [10]: 90 % of control | T/C [11]: 90 % of control

C=C1C(=O)OC2C=C(C)C3C(O)CC(C)(O)C3CC12 (stereo unspecified)
T/C [13]: 88 % of control

CC(C)NNC(=O)c1ccccc1N
T/C [10]: 100 % of control | T/C [12]: 87 % of control | T/C [13]: 95 % of control | T/C [14]: 97 % of control

[Cl][Pt+2][Cl].[NH-]CC1(C[NH-])CCC1
T/C (dose: 1.2 mg/kg/injection, schedule: Q01DX009 (ip), vehicle: carboxymethylcellulose (CMC)): 159 % of control | T/C (dose: 2.4 mg/kg/injection, schedule: Q01DX009 (ip), vehicle: carboxymethylcellulose (CMC)): 168 % of control | T/C (dose: 3.6 mg/kg/injection, schedule: Q01DX009 (ip), vehicle: carboxymethylcellulose (CMC)): 169 % of control

CC1(C)SC(C(NC(=O)Cc2ccccc2)C(=O)O)NC1C(=O)O (stereo unspecified)
T/C [16]: 105 % of control | T/C [17]: 102 % of control

Br/C=C/C[N+]12CN3CN(CN(C3)C1)C2
T/C (dose: 12.5 mg/kg/injection, schedule: Q01DX009 (ip), vehicle: saline): 117 % of control | T/C [15]: 103 % of control | T/C [18]: 110 % of control

O=C1/C(=N/O)CCc2ccccc21
T/C [12]: 91 % of control | T/C [13]: 100 % of control

NC(=O)c1ccc(N)nc1
T/C (dose: 0.09 mg/kg/injection, schedule: Q01DX009 (ip), vehicle: saline): 100 % of control | T/C (dose: 0.18 mg/kg/injection, schedule: Q01DX009 (ip), vehicle: saline): 86 % of control and 107 % of control | T/C (dose: 0.37 mg/kg/injection, schedule: Q01DX009 (ip), vehicle: saline): 113 % of control and 114 % of control | T/C (dose: 0.75 mg/kg/injection, schedule: Q01DX009 (ip), vehicle: saline): 102 % of control | T/C (dose: 1.5 mg/kg/injection, schedule: Q01DX009 (ip), vehicle: saline): 112 % of control and 115 % of control | T/C (dose: 2.0 mg/kg/injection, schedule: Q01DX009 (ip), vehicle: saline): 100 % of control | T/C (dose: 3.12 mg/kg/injection, schedule: Q04DX003 (ip), vehicle: saline): 111 % of control | T/C [7]: 107 % of control

NC(=O)N1OCC(N)C1=O (stereo unspecified)
T/C [18]: 95 % of control | T/C (dose: 100.0 mg/kg/injection, schedule: Q01DX009 (ip), vehicle: saline): 103 % of control | T/C (dose: 200.0 mg/kg/injection, schedule: Q01DX009 (ip), vehicle: saline): 95 % of control

O=C1C=C2C(=CCOC2O)O1 (stereo unspecified)
T/C (dose: 0.39 mg/kg/injection, schedule: Q01DX009 (ip), vehicle: Klucel (hydroxypropylcellulose) (HPC)): 96 % of control | T/C (dose: 0.75 mg/kg/injection, schedule: Q01DX009 (ip), vehicle: Klucel (hydroxypropylcellulose) (HPC)): 106 % of control | T/C (dose: 1.5 mg/kg/injection, schedule: Q01DX009 (ip), vehicle: Klucel (hydroxypropylcellulose) (HPC)): 96 % of control | T/C (dose: 3.0 mg/kg/injection, schedule: Q01DX009 (ip), vehicle: Klucel (hydroxypropylcellulose) (HPC)): 86 % of control
